According to ChEMBL document CHEMBL1144356 (J Med Chem, 2005):
pEC50, pIC50: −log10 of the molar value.

Key:
[1] = tested on: Canis familiaris; experiment: Effect on cholesterol lowering in male Beagle dog at an oral dose of 4 mkd for 7 days; format: functional, Canis lupus familiaris
[2] = tested on: Canis familiaris; experiment: Effect on cholesterol lowering in male Beagle dog at an oral dose of 4 mkd for 10 days; format: functional, Canis lupus familiaris
[3] = tested on: Canis familiaris; experiment: Effect on cholesterol lowering in male Beagle dog at an oral dose of 4 mkd for 15 days; format: functional, Canis lupus familiaris
[4] = tested on: Canis familiaris; experiment: Effect on cholesterol lowering in male Beagle dog at an oral dose of 4 mkd for 3 days; format: functional, Canis lupus familiaris
[5] = In vitro binding affinity for PPAR-alpha; parameters: species or system Homo sapiens
[6] = biological target: T1, Peroxisome proliferator-activated receptor gamma (Homo sapiens, UniProt P37231); experiment: In vitro binding affinity for PPAR-gamma
T1 sequence (P37231 whole entry): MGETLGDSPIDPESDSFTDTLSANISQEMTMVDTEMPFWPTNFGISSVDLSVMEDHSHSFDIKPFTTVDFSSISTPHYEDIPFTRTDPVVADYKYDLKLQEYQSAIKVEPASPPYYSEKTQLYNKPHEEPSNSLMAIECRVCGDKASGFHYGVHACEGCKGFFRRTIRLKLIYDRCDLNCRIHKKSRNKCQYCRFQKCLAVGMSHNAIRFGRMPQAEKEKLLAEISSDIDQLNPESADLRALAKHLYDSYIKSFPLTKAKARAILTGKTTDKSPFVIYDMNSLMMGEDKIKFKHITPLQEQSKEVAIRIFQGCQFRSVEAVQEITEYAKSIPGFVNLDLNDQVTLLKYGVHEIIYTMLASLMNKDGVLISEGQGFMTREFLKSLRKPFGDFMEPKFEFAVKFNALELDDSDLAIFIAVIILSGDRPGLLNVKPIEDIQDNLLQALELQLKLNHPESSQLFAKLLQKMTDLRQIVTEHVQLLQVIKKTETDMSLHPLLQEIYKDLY

[7] = biological target: T2, Peroxisome proliferator-activated receptor delta (Homo sapiens, UniProt Q03181); experiment: In vitro binding affinity for PPAR-delta
T2 sequence (Q03181 whole entry): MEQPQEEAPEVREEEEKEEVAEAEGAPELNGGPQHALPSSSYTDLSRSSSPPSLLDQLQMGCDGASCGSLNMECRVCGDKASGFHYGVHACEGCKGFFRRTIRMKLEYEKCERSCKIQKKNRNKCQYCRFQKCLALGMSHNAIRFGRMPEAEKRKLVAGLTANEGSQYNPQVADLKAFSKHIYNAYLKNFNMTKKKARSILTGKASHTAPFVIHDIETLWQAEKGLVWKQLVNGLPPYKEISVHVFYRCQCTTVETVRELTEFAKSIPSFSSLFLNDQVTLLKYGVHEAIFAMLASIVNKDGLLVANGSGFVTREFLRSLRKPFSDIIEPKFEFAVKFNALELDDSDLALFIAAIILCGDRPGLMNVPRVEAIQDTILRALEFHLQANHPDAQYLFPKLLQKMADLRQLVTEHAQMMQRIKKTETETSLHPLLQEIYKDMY

[8] = biological target: T3, Peroxisome proliferator-activated receptor alpha (Canis lupus familiaris, UniProt Q95N78); experiment: Effective concentration against canine PPAR-alpha in Gal4 transactivation assay
T3 sequence (Q95N78 whole entry): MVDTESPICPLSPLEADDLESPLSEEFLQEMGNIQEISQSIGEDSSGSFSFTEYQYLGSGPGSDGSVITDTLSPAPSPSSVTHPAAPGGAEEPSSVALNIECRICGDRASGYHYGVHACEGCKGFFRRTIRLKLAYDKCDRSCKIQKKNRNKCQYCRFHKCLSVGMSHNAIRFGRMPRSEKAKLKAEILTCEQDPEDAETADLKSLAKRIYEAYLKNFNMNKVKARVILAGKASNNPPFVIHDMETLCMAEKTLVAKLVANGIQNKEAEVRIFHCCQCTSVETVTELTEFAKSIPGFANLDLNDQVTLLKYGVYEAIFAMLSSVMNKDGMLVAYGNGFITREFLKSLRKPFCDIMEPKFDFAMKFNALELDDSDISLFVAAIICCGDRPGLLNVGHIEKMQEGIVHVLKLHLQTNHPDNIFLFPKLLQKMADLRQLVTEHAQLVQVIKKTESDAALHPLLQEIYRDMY

[9] = tested on: Canis familiaris; experiment: Effect on cholesterol lowering in male Beagle dog at an oral dose of 50 mkd for 15 days; format: functional, Canis lupus familiaris
[10] = tested on: Canis familiaris; experiment: Effect on cholesterol lowering in male Beagle dog at an oral dose of 50 mkd for 7 days; format: functional, Canis lupus familiaris
[11] = tested on: Cricetinae gen. sp.; experiment: Effect at an oral dose of 100 mg/kg/day for 14 days on serum cholesterol level of hamster; format: functional, Cricetulus griseus
[12] = tested on: Canis familiaris; experiment: Effect on cholesterol lowering in male Beagle dog at an oral dose of 50 mkd for 10 days; format: functional, Canis lupus familiaris
[13] = tested on: Canis familiaris; experiment: Effect on cholesterol lowering in male Beagle dog at an oral dose of 50 mkd for 3 days; format: functional, Canis lupus familiaris
[14] = tested on: Cricetinae gen. sp.; experiment: Effect at an oral dose of 100 mg/kg/day for 14 days on serum triglyceride level of hamster; format: functional, Cricetulus griseus
[15] = biological target: T1, Peroxisome proliferator-activated receptor gamma; experiment: Effective concentration against human PPAR-gamma in Gal4 transactivation assay; 30% response at 3 uM; format: functional
[16] = biological target: T4, Peroxisome proliferator-activated receptor alpha (Homo sapiens, UniProt Q07869); experiment: Effective concentration against human PPAR-alpha in Gal4 transactivation assay; format: functional
T4 sequence (Q07869 whole entry): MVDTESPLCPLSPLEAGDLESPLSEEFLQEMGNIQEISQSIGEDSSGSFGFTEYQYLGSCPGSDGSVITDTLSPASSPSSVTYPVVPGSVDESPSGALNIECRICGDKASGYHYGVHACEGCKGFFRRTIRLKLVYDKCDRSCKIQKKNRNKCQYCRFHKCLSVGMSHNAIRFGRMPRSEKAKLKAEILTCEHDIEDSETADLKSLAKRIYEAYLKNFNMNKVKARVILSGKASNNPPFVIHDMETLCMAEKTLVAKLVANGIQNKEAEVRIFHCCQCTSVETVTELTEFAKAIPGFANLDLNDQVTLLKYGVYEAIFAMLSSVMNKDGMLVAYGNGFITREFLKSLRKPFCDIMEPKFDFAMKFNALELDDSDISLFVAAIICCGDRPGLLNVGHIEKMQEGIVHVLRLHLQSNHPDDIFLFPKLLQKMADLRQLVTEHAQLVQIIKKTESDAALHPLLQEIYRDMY

[17] = tested on: Cricetinae gen. sp.; experiment: Effect at an oral dose of 0.3 mg/kg/day for 14 days on serum cholesterol level of hamster; format: functional, Cricetulus griseus
[18] = tested on: Cricetinae gen. sp.; experiment: Effect at an oral dose of 0.1 mg/kg/day for 14 days on serum cholesterol level of hamster; format: functional, Cricetulus griseus
[19] = biological target: T1, Peroxisome proliferator-activated receptor gamma; experiment: Effective concentration against human PPAR-gamma in Gal4 transactivation assay; 28% response at 3 uM; format: functional
[20] = tested on: Cricetinae gen. sp.; experiment: Effect at an oral dose of 0.3 mg/kg/day for 14 days on serum triglyceride level of hamster; format: functional, Cricetulus griseus
[21] = tested on: Cricetinae gen. sp.; experiment: Effect at an oral dose of 0.1 mg/kg/day for 14 days on serum triglyceride level of hamster; format: functional, Cricetulus griseus
[22] = biological target: T1, Peroxisome proliferator-activated receptor gamma; experiment: Effective concentration against human PPAR-gamma in Gal4 transactivation assay; 59% response at 3 uM; format: functional
[23] = biological target: T1, Peroxisome proliferator-activated receptor gamma; experiment: Effective concentration against human PPAR-gamma in Gal4 transactivation assay; 11% response at 3 uM; format: functional
[24] = biological target: T1, Peroxisome proliferator-activated receptor gamma; experiment: Effective concentration against human PPAR-gamma in Gal4 transactivation assay; 19% response at 3 uM; format: functional

## CCC(C)(C)C(=O)O[C@H]1C[C@@H](C)C=C2C=C[C@H](C)[C@H](CC[C@@H]3C[C@@H](O)CC(=O)O3)[C@H]21 [SIMVASTATIN]
[1]
  TC: -13.3%
[2]
  TC: -9.9%
[3]
  TC: -17.1%
[4]
  TC: -7.8%

## CC[C@@]1(C(=O)O)Cc2cc(OCCCOc3ccc(CCC(F)(F)F)cc3Cl)ccc2O1
[5]
  pIC50: 7.68
[6]
  pIC50: < 4.82
[7]
  pIC50: < 4.82
[8]
  pEC50: 8.70

## CCC1(C(=O)O)Cc2cc(OCCCOc3ccc(C(F)(F)F)cc3Cl)ccc2O1 (racemic)
[5]
  pIC50: 7.38
[6]
  pIC50: < 4.82
[7]
  pIC50: 6.08

## CC[C@]1(C(=O)O)Cc2cc(OCCCOc3ccc(OC(F)(F)F)cc3Cl)ccc2O1
[5]
  pIC50: 5.65
[6]
  pIC50: < 4.82
[7]
  pIC50: < 4.30

## CC[C@@]1(C(=O)O)Cc2cc(OCCCOc3ccc(OCC(F)(F)F)cc3)ccc2O1
[5]
  pIC50: 6.64
[6]
  pIC50: < 4.30
[7]
  pIC50: < 4.82
[8]
  pEC50: 6.89

## O=C(O)C1(Cc2ccccc2)Cc2cc(OCCCOc3ccc(OC(F)(F)F)cc3Cl)ccc2O1 (racemic)
[5]
  pIC50: 6.56
[6]
  pIC50: < 4.82
[7]
  pIC50: < 4.30

## CC(C)OC(=O)C(C)(C)Oc1ccc(C(=O)c2ccc(Cl)cc2)cc1 [FENOFIBRATE]
[9]
  TC: -12.3%
[10]
  TC: -5.5%
[11]
  TC: -28.55%
[12]
  TC: -5.9%
[13]
  TC: -2.2%
[14]
  TG: -24.08%

## CCC1(C(=O)O)Cc2cc(OCCCOc3ccc(SC(F)(F)F)cc3Cl)ccc2O1 (racemic)
[5]
  pIC50: 8.52
[15]
  pEC50: < 5.52
[6]
  pIC50: 5.17
[7]
  pIC50: < 4.82
[16]
  pEC50: 8.52
[8]
  pEC50: > 9.00

## CC[C@@]1(C(=O)O)Cc2cc(OCCCOc3ccc(CC(F)(F)F)cc3Cl)ccc2O1
[5]
  pIC50: 8.40
[17]
  TC: -37%
[18]
  TC: -33%
[19]
  pEC50: < 5.52
[20]
  TG: -26%
[6]
  pIC50: < 4.82
[7]
  pIC50: < 4.82
[21]
  TG: -13%
[16]
  pEC50: 8.70
[8]
  pEC50: > 9.00

## CCCc1cc(SC(F)(F)F)ccc1OCCCOc1ccc2c(c1)CC(CC)(C(=O)O)O2 (racemic)
[5]
  pIC50: 7.96
[6]
  pIC50: 5.51
[7]
  pIC50: 5.28
[16]
  pEC50: 8.10
[22]
  pEC50: < 5.52
[8]
  pEC50: > 9.00

## CC(C)[C@@]1(C(=O)O)Cc2cc(OCCCOc3cc(C(F)(F)F)ccc3Cl)ccc2O1
[5]
  pIC50: 6.79
[23]
  pEC50: < 5.52
[6]
  pIC50: < 4.82
[7]
  pIC50: < 4.82
[16]
  pEC50: 7.39
[8]
  pEC50: 7.38

## CCC1(C(=O)O)Cc2cc(OCCCOc3ccc(OCC(F)(F)F)cc3Cl)ccc2O1 (racemic)
[5]
  pIC50: 7.49
[6]
  pIC50: < 4.82
[7]
  pIC50: < 4.82
[16]
  pEC50: 7.47
[24]
  pEC50: < 5.52
[8]
  pEC50: 8.10
